Measurements published in patent US7803792B2, “Quaternary ammonium compounds” (Asahi Kasei Pharma Corporation, priority 2002, dated 2010).

Columns and labels:
human IBAT = biological target: T1, human IBAT (Homo sapiens, UniProt Q12908); assay: In vitro assay of temporarily expressed human IBAT transporter using Cos 7 cells (Test Example 8); assay type: cell-based; settings: Cos 7 cells temporarily expressing human IBAT; [3H] taurocholate 8 μM, 37° C., 60 minutes
T1 construct: expressed in transfected cells; host or cells: Cos 7
T1 sequence (Q12908 1-348): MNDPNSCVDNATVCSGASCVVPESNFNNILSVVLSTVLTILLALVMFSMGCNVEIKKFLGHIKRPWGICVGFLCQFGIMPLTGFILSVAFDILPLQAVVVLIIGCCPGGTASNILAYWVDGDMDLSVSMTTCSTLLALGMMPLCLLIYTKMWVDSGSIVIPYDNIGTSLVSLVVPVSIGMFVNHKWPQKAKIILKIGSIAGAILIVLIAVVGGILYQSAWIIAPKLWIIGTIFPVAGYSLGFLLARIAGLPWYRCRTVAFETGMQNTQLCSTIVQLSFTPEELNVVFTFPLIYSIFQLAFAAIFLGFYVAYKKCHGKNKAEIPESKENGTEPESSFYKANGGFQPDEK
Summary of the method: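 Cos 7 cells transiently transfected with human or rat IBAT cDNA, assayed one day later in Hank's buffer with 25 mM glucose, 10 mM HEPES (pH 7.4) plus compound. Uptake of 8 μM [^3H]taurocholate over 60 min at 37 °C, stopped with 1 mM taurocholate washes; lysate radioactivity by scintillation counting.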

rat IBAT = biological target: T2, rat IBAT (Rattus norvegicus, UniProt Q62633); assay: In vitro assay of temporarily expressed rat IBAT transporter using Cos 7 cells (Test Example 8); assay type: cell-based; settings: Cos 7 cells temporarily expressing rat IBAT; [3H] taurocholate 8 μM, 37° C., 60 minutes
T2 construct: expressed in transfected cells; host or cells: Cos 7
T2 sequence (Q62633 1-348): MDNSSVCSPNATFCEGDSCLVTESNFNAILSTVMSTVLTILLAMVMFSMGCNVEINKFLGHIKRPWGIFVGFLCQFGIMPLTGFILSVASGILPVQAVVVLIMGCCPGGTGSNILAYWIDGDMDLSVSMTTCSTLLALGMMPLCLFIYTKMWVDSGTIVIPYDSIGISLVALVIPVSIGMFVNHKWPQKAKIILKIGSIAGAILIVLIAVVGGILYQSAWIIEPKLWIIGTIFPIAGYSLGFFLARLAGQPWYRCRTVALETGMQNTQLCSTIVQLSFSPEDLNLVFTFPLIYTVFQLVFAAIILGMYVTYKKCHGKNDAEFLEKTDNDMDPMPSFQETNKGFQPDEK
Description: In Vitro Assay of Compounds Which Inhibit Temporarily Expressed Human IBAT Transporter or Rat IBAT Transporter Using Cos 7 Cells
In this test example, the in vitro assay of the compounds which inhibit temporarily expressed human IBAT transporter or rat IBAT transporter using Cos cells was carried out according to the method described in Am. J. Physiol., 274, G157-169.
That is, […] Cos 7 were inoculated on a 24-well cell plate. One day later, 0.3 μg per well of cDNA of a human IBAT or a rat IBAT was transfected by using FuGENE6 (manufactured by ROCHE PHARMACEUTICAL CO., LTD.). For the assay, the cells cultured for one day after the transfection were used and the following procedure was followed. The cells were washed once with an assay buffer, Hank's buffer solution containing 25 mM glucose and with 10 mM HEPES (pH 7.4), and then the assay buffer was replaced by an assay buffer to which the test compound was added. After adding [^3H] taurocholate to a final concentration of 8 μM, the cells were incubated at 37° C. for 60 minutes. [^3H] taurocholate was allowed to be incorporated in Cos 7 cells through human IBAT or rat IBAT. The reaction was stopped by washing twice with a buffer prepared by adding 1 mM taurocholate to the assay buffer and lyzing the cells with 0.2M NaOH. Measurement of radioactivity was carried out by introducing the cell lyzate in 4 ml of liquid scintillation cocktail, stirring the mixture well, and then measuring the radioactivity by a scintillation counter.

KKAy/Ta Jcl obese mice = assay: Obesity and fatty liver model (Test Example 6); assay type: in vivo, mouse; settings: average ± standard error; for Body Weight (g) 2 weeks later / Liver triglyceride / Body Weight (g) Variation amount: 1 mg/kg once a day for 2 weeks; for Liver triglyceride: controls 94 ± 18 / 103 ± 19; for Body Weight (g) Variation amount: controls −0.8 ± 0.5 / 0.7 ± 0.4; for Body Weight (g) Before administration: baseline of the 1 mg/kg group
Description: Obesity and Fatty Liver Model
The obesity and fatty liver model in this test example was handled by referring to the method described in WO02/09757.
That is, 10 weeks old KKA^y/Ta Jcl male mice were used as obese mice (N=from 4 to 7). The test compounds dissolved or suspended in an aqueous solution of 1% HCO60 (manufactured by NIPPON CHEMICALS COMPANY, LTD.) and an aqueous solution of 1% HCO60 (manufactured by NIPPON CHEMICALS COMPANY, LTD.) as a control group were administered once a day for 2 weeks continuously. The weights of the mice were measured every day and compared with the weights measured on the day before the administration. On the day next to the final day of administration of the drug, the livers were extracted and concentrations of triglycerides in the liver tissues were measured by using a measurement kit (TRIGLYCERIDE TEST WAKO, manufactured by WAKO PURE CHEMICAL […], LTD.).

[1] = system: Cholic acid-loaded rat model; assay: Bile acid-decreasing effect in portal vein of rats loaded with cholic acid (Test Example 2); assay type: in vivo; settings: 0.1 mg/kg oral with cholic acid 200 mg/kg; portal vein blood after 2 hours; HCO-60 0.1%
Summary of the method: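 SD (IGS) rats aged 7 to 9 weeks were fasted from the day before testing, then given cholic acid (200 mg/kg) together with the test compound by forced oral dosing. Portal vein blood was drawn 2 hours later, and total serum bile acid was measured with a commercial kit (n=6). The percent decrease was calculated relative to a cholic acid-only control group set at 100%.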

## CCCCC1(CCCC)CS(=O)(=O)c2ccc(N(C)C)cc2C(c2cccc(NC(=S)CCCCC[N+]34CCC(CC3)CC4)c2)N1.[Br-] (stereo not drawn) [Example 1, 1-{5-[3-(3,3-Dibutyl-7-dimethylamino-1,1-dioxo-2,3,4,5-tetrahydro-1,4-benzothiazepin-5-yl)phenylthiocarbamoyl]pentyl}-1-azoniabicyclo[2.2.2]octane bromide]
Human IBAT
  IC50: 25 nM
Rat IBAT
  IC50: 7 nM

## CCCCC1(CCCC)CS(=O)(=O)c2ccc(N(C)C)cc2C(c2cccc(NC(=S)Nc3ccc(C[N+](C)(C)Cc4ccccc4)cc3)c2)N1.[Br-] (stereo not drawn) [Example 3440]
Human IBAT
  IC50: 37 nM
KKAy/Ta Jcl obese mice
  Body Weight (g) 2 weeks later: 43.9 ± 1.8 g
  Liver triglyceride: 88 ± 6 mg/g
  Body Weight (g) Variation amount: -0.7 ± 1.0 g
  Body Weight (g) Before administration: 44.6 ± 0.8 g
[1]
  Rate of decrease (%) of bile acid: 26%
Rat IBAT
  IC50: 10 nM

## C#CC[N+](C)(Cc1ccccc1)Cc1ccc(NC(=S)Nc2cccc(C3NC(CCCC)(CCCC)CS(=O)(=O)c4ccc(N(C)C)cc43)c2)cc1 (stereo not drawn) [Example 3448]
Human IBAT
  IC50: 37 nM
KKAy/Ta Jcl obese mice
  Body Weight (g) 2 weeks later: 42.1 ± 3.2 g
  Liver triglyceride: 74 ± 8 mg/g
  Body Weight (g) Variation amount: -2.0 ± 0.7 g
  Body Weight (g) Before administration: 44.1 ± 0.7 g
[1]
  Rate of decrease (%) of bile acid: 25%

## CCCCC1(CCCC)CS(=O)(=O)c2ccc(N(C)C)cc2C(c2cccc(NC(=S)Nc3ccc(C[N+]4(Cc5ccccc5)CCC(O)CC4)cc3)c2)N1.[Br-] (stereo not drawn) [Example 3605]
Human IBAT
  IC50: 39 nM
KKAy/Ta Jcl obese mice
  Body Weight (g) 2 weeks later: 41.4 ± 1.0 g
  Liver triglyceride: 65 ± 7 mg/g
  Body Weight (g) Variation amount: -1.5 ± 0.4 g
  Body Weight (g) Before administration: 42.9 ± 1.1 g
[1]
  Rate of decrease (%) of bile acid: 24%

## CCCCC1(CCCC)CS(=O)(=O)c2ccc(N(C)C)cc2C(c2cccc(NC(=S)Nc3ccc(C[N+]45CCC(c6ccccc6)(CC4)CC5)cc3)c2)N1.[Br-] (stereo not drawn) [Example 3696]
Human IBAT
  IC50: 39 nM
KKAy/Ta Jcl obese mice
  Body Weight (g) 2 weeks later: 42.2 ± 2.2 g
  Liver triglyceride: 76 ± 12 mg/g
  Body Weight (g) Variation amount: -1.3 ± 0.3 g
  Body Weight (g) Before administration: 43.5 ± 1.3 g
[1]
  Rate of decrease (%) of bile acid: 13%

## CCCCC1(CCCC)CS(=O)(=O)c2ccc(N(C)C)cc2C(c2cccc(NC(=S)Nc3ccc(C[n+]4ccc(C(C)(C)C)cc4)cc3)c2)N1.[Br-] (stereo not drawn) [Example 3713]
Human IBAT
  IC50: 37 nM
KKAy/Ta Jcl obese mice
  Body Weight (g) 2 weeks later: 41.5 ± 2.4 g
  Liver triglyceride: 59 ± 33 mg/g
  Body Weight (g) Variation amount: -2.5 ± 0.6 g
  Body Weight (g) Before administration: 44.0 ± 1.1 g
[1]
  Rate of decrease (%) of bile acid: 32%

## CCCCC1(CCCC)CS(=O)(=O)c2ccc(N(C)C)cc2C(c2cccc(NC(=S)Nc3ccc(C[n+]4cccc(CCCO)c4)cc3)c2)N1.[Br-] (stereo not drawn) [Example 3747]
Human IBAT
  IC50: 45 nM
KKAy/Ta Jcl obese mice
  Body Weight (g) 2 weeks later: 42.2 ± 1.8 g
  Liver triglyceride: 47 ± 23 mg/g
  Body Weight (g) Variation amount: -2.1 ± 1.0 g
  Body Weight (g) Before administration: 44.3 ± 0.8 g
[1]
  Rate of decrease (%) of bile acid: 40%

## CCCCC1(CCCC)CS(=O)(=O)c2ccc(N(C)C)cc2C(c2cccc(NC(=S)Nc3ccc(C[n+]4cccc(CCC(=O)OC)c4)cc3)c2)N1.[Br-] (stereo not drawn) [Example 3752]
Human IBAT
  IC50: 41 nM
KKAy/Ta Jcl obese mice
  Body Weight (g) 2 weeks later: 41.5 ± 1.0 g
  Liver triglyceride: 56 ± 23 mg/g
  Body Weight (g) Variation amount: -2.3 ± 0.9 g
  Body Weight (g) Before administration: 43.8 ± 1.2 g
[1]
  Rate of decrease (%) of bile acid: 42%

## CCCCC1(CCCC)CS(=O)(=O)c2ccc(N(C)C)cc2C(c2cccc(NC(=S)Nc3ccc(C[n+]4ccccc4CCC)cc3)c2)N1.[Br-] (stereo not drawn) [Example 5408]
Human IBAT
  IC50: 32 nM
KKAy/Ta Jcl obese mice
  Body Weight (g) 2 weeks later: 42.2 ± 1.6 g
  Liver triglyceride: 70 ± 11 mg/g
  Body Weight (g) Variation amount: -1.8 ± 0.5 g
  Body Weight (g) Before administration: 44.0 ± 0.9 g
[1]
  Rate of decrease (%) of bile acid: 35%
